The values that follow come from ChEMBL document CHEMBL1141654, “Protective effects of amide constituents from the fruit of Piper chaba on D-galactosamine/TNF-alpha-induced cell death in mouse hepatocytes” (2008).

Holding throughout (format): functional
Assay [1] concerns Hepatocyte. Kind of assay: Inhibition of D-galactosamine/TNFalpha-induced cell death in ddY mouse hepatocytes at 1 uM after 20 hrs by MTT assay. On the technique in general: Formazan colour is commonly taken as a measure of viable cells.
Assay [2] concerns Hepatocyte. The assay can be described thus: Inhibition of D-galactosamine/TNFalpha-induced cell death in ddY mouse hepatocytes at 10 uM after 20 hrs by MTT assay.
In assay [3] the test system is Hepatocyte. Kind of assay: Inhibition of D-galactosamine/TNFalpha-induced cell death in ddY mouse hepatocytes at 3 uM after 20 hrs by MTT assay.
Assay [4] concerns Hepatocyte. Kind of assay: Inhibition of D-galactosamine/TNFalpha-induced cell death in ddY mouse hepatocytes at 30 uM after 20 hrs by MTT assay.
For assay [5], the system named is Mus musculus. Kind of assay: Inhibition of D-galactosamine/LPS-induced liver injury in ddY mouse assessed as serum GPT level at 10 mg/kg, po.
Assay [6] deals with Mus musculus. The assay can be described thus: Inhibition of D-galactosamine/LPS-induced liver injury in ddY mouse assessed as serum GOT level at 10 mg/kg, po.
The subject of assay [7] is Mus musculus. Kind of assay: Inhibition of D-galactosamine/LPS-induced TNFalpha level in ddY mouse serum at 10 mg/kg, po by ELISA. A general note: In an ELISA, binding on a coated surface is turned into a signal by an enzyme label.
The subject of assay [8] is Mus musculus. Kind of assay: Inhibition of D-galactosamine/LPS-induced TNFalpha level in ddY mouse serum at 20 mg/kg, po by ELISA.
The subject of assay [9] is Hepatocyte. The assay can be described thus: Inhibition of D-galactosamine-induced cell death in ddY mouse hepatocytes assessed as cell viability at 30 uM after 44 hrs by MTT assay. The following applies: read-out: Activity.
Assay [10] has as its system Mus musculus. The assay can be described thus: Inhibition of D-galactosamine/LPS-induced TNFalpha level in ddY mouse serum at 5 mg/kg, po by ELISA.
Assay [11] has as its system Hepatocyte. Kind of assay: Inhibition of D-galactosamine-induced cell death in ddY mouse hepatocytes assessed as cell viability at 100 uM after 44 hrs by MTT assay. The note with it: read-out: Activity.
Assay [12] has as its system Mus musculus. Kind of assay: Inhibition of D-galactosamine/LPS-induced liver injury in ddY mouse assessed as serum GOT level at 5 mg/kg, po.
The test system of assay [13] is Mus musculus. Kind of assay: Inhibition of D-galactosamine/LPS-induced liver injury in ddY mouse assessed as serum GPT level at 2.5 mg/kg, po.
The test system of assay [14] is L929. The assay can be described thus: Inhibition of TNF-alpha-induced cell death in […] assessed as cell viability at 30 uM after 20 hrs by MTT assay. The note with it: L929, 20 h, read-out: Activity.
For assay [15], the system named is Hepatocyte. The assay can be described thus: Inhibition of D-galactosamine/TNFalpha-induced cell death in ddY mouse hepatocytes assessed as cell viability at 100 uM after 20 hrs by MTT assay. The note with it: read-out: Activity.
In assay [16] the test system is Hepatocyte. The assay can be described thus: Inhibition of D-galactosamine/TNFalpha-induced cell death in ddY mouse hepatocytes assessed as cell viability at 30 uM after 20 hrs by MTT assay. The note with it: read-out: Activity.
The test system of assay [17] is L929. Kind of assay: Inhibition of TNF-alpha-induced cell death in […] assessed as cell viability at 100 uM after 20 hrs by MTT assay. The note with it: L929, 20 h, read-out: Activity.
Assay [18] has as its system L929. The assay can be described thus: Inhibition of TNF-alpha-induced cell death in […] assessed as cell viability at 10 uM after 20 hrs by MTT assay. The following applies: L929, 20 h, read-out: Activity.
Assay [19] concerns Hepatocyte. The assay can be described thus: Inhibition of D-galactosamine-induced cell death in ddY mouse hepatocytes assessed as cell viability at 10 uM after 44 hrs by MTT assay. The note with it: read-out: Activity.
Assay [20] deals with Hepatocyte. Kind of assay: Inhibition of D-galactosamine/TNFalpha-induced cell death in ddY mouse hepatocytes assessed as cell viability at 10 uM after 20 hrs by MTT assay. The following applies: read-out: Activity.
Assay [21] deals with Mus musculus. Kind of assay: Inhibition of D-galactosamine/LPS-induced liver injury in ddY mouse assessed as serum GPT level at 5 mg/kg, po.
In assay [22] the test system is Mus musculus. Kind of assay: Inhibition of D-galactosamine/LPS-induced liver injury in ddY mouse assessed as serum GOT level at 2.5 mg/kg, po.

For orientation: inhibition means the change of the read-out against control, counted positive when it falls. As to `CC(C)CNC(=O)/C=C/C=C/c1ccc2c(c1)OCO2` [PIPERLONGUMININE], the inhibition at 1 µM in assay [1] amounted to 27%. Moreover, in assay [2], the inhibition at 10 µM amounted to 54%. Also, in [3], the inhibition at 3 µM stood at 50%. Besides, the inhibition at 30 µM in [4] turned out to be 66%.

For the molecule `CC(C)CNC(=O)/C=C/C=C/CCCC/C=C/c1ccc2c(c1)OCO2` [RETROFRACTAMIDE B], the inhibition at 1 µM in [1] stood at 32%. Also, in [2], the inhibition at 10 µM was 51%. Besides, the inhibition at 3 µM in assay [3] amounted to 54%. Besides, in [4], the inhibition at 30 µM was found to be 26%.

As for `CC(C)CNC(=O)/C=C/CCCCCC/C=C/c1ccc2c(c1)OCO2` [PIPERCHABAMIDE D], the inhibition at 10 µM in [2] amounted to 77%. In addition, the inhibition at 3 µM in assay [3] came out at 57%. Besides, in [4], the inhibition at 30 µM came to 37%.

The inhibition in vivo is the change of the read-out against control, counted positive when it falls. Turning to `C[C@]12CCC(=O)C=C1CC[C@@H]1[C@@H]2[C@@H](O)C[C@@]2(C)[C@H]1CC[C@]2(O)C(=O)CO` [HYDROCORTISONE], the inhibition in vivo at 10 mg/kg is 97.7% in assay [5], 94.2% in assay [6] and 92.1% in assay [7].

Consider `CCCCC/C=C\CCCCCCCC/C=C/C=C/C(=O)NCC(C)C`, for which the inhibition at 1 µM in assay [1] worked out at 10%. Further, the inhibition at 10 µM in assay [2] worked out at 19%. Further, the inhibition at 3 µM in assay [3] was determined as 3%. The inhibition at 30 µM in [4] came to 27%.

Consider `O=C(/C=C/C=C/CCCCCC/C=C/c1ccc2c(c1)OCO2)N1CCCCC1` [PIPERCHABAMIDE C], for which the inhibition at 10 µM in assay [2] was determined as 52%. Besides, in assay [3], the inhibition at 3 µM was 42%. In addition, the inhibition at 30 µM in assay [4] amounted to 68%.

`O=C(CCCCCC/C=C/c1ccc2c(c1)OCO2)N1CCCCC1` [PIPERROLEIN B]: the inhibition at 1 µM in [1] worked out at 20%. Also, the inhibition at 10 µM in assay [2] came out at 33%. Besides, the inhibition at 3 µM in [3] turned out to be 29%. For the same molecule, the inhibition at 30 µM in [4] turned out to be 64%.

With `O=C(/C=C/CCCC/C=C/c1ccc2c(c1)OCO2)N1CCCCC1` [PIPERNONALINE], the inhibition at 10 µM in assay [2] was 31%. Moreover, the inhibition at 3 µM in assay [3] was 17%. Also, in [4], the inhibition at 30 µM worked out at 48%.

Turning to `CCCCCCCCCCCCC/C=C/C=C/C(=O)NCC(C)C`, the inhibition at 1 µM in assay [1] amounted to 15%. For the same molecule, the inhibition at 10 µM in assay [2] turned out to be 41%. Besides, the inhibition at 3 µM in assay [3] came to 37%. Moreover, the inhibition at 30 µM in assay [4] amounted to 43%.

On to `COC(=O)/C=C/C=C/c1ccc2c(c1)OCO2` [METHYL PIPERATE], for which the inhibition at 10 µM in [2] was 29%. Further, the inhibition at 3 µM in assay [3] was determined as 18%. The inhibition at 30 µM in assay [4] worked out at 21%.

`CCC(C)CNC(=O)/C=C/C=C/c1ccc2c(c1)OCO2` (stereo not given) [PIPERCHABAMIDE E]: the inhibition at 10 µM in assay [2] is 71%. Besides, the inhibition at 3 µM in [3] was found to be 34%. The inhibition at 30 µM in assay [4] came out at 98%.

For the molecule `CC(C)CNC(=O)/C=C/C=C/CC/C=C/c1ccc2c(c1)OCO2` [RETROFRACTAMIDE A], in assay [1], the inhibition at 1 µM was found to be 40%. Besides, the inhibition at 10 µM in assay [2] is 35%. In addition, the inhibition at 3 µM in assay [3] was 32%. Moreover, in assay [4], the inhibition at 30 µM was found to be 60%.

As to `CCCCCCC/C=C/C=C/C(=O)NCC(C)C`, in [1], the inhibition at 1 µM was 12%. The inhibition at 10 µM in [2] was found to be 31%. In addition, in assay [3], the inhibition at 3 µM came out at 21%. Further, the inhibition at 30 µM in assay [4] amounted to 44%.

Regarding `O=C(/C=C/CCCCCC/C=C/c1ccc2c(c1)OCO2)N1CCCCC1` [PIPERCHABAMIDE B], in assay [2], the inhibition at 10 µM came out at 74%. For the same molecule, the inhibition at 3 µM in [3] amounted to 63%. Also, the inhibition at 30 µM in [4] is 78%.

As to `O=Cc1ccc2c(c1)OCO2` [PIPERONAL], the inhibition at 10 µM in [2] was 23%. Further, the inhibition at 3 µM in [3] came to 20%. For the same molecule, the inhibition at 30 µM in assay [4] is 39%.

For the molecule `CCCCC/C=C/C=C/C(=O)NCC(C)C` [PELLITORIN], the inhibition at 10 µM in assay [2] turned out to be 25%. The inhibition at 3 µM in [3] amounted to 19%. In addition, in assay [4], the inhibition at 30 µM was found to be 42%.

Regarding `CC(C)CNC(=O)/C=C/C=C/CCCCCC/C=C/c1ccc2c(c1)OCO2` [GUINEENSINE], the inhibition at 10 µM in [2] stood at 33%. Moreover, the inhibition at 3 µM in assay [3] was 26%. Moreover, the inhibition at 30 µM in [4] was 12%.

As to `CC(C)CNC(=O)/C=C/CCCC/C=C/c1ccc2c(c1)OCO2` [RETROFRACTAMIDE C], the inhibition at 1 µM in [1] amounted to 30%. For the same molecule, the inhibition at 10 µM in assay [2] amounted to 31%. Moreover, the inhibition at 3 µM in assay [3] is 51%. The inhibition at 30 µM in assay [4] stood at 37%.

With `O=C1C=CCCN1C(=O)CCc1ccccc1` [PIPERCHABAMIDE A], the inhibition at 10 µM in [2] is 32%. Besides, the inhibition at 3 µM in assay [3] came out at 29%. In addition, the inhibition at 30 µM in assay [4] is 70%.

In the case of `O=C(/C=C/C=C/c1ccc2c(c1)OCO2)N1CCCCC1` [PIPERINE], the values for the inhibition in vivo at 10 mg/kg in assay [5], in assay [6] and in assay [7] were 94.3%, 96.1% and 9.2%, respectively. Besides, the inhibition at 10 µM in assay [2] was determined as 46%. In addition, the inhibition in vivo at 20 mg/kg in [8] is -2.2%. For the same molecule, the viability at 30 µM in assay [9] was 36.5%; in [14], 66.2%; in [16] it was 76.1%. Besides, the values for the inhibition in vivo at 5 mg/kg in assay [10], in [12] and in [21] were 15.7%, 50.7% and 51.1%, respectively. Besides, the inhibition at 3 µM in assay [3] turned out to be 23%. Moreover, the inhibition at 30 µM in assay [4] worked out at 68%. The viability at 100 µM is 29.2% in assay [11], 84.3% in assay [15] and 92.2% in [17]. Further, the figures for the inhibition in vivo at 2.5 mg/kg in assay [13] and in [22] were 23.2% and 0.3%, respectively. The viability at 10 µM amounted to 64% in assay [18], 40.6% in [19] and 72.4% in assay [20].

Consider `O=C(/C=C/CCc1ccc2c(c1)OCO2)N1CCCCC1` [PIPERANINE], for which, in assay [2], the inhibition at 10 µM came out at 50%. The inhibition at 3 µM in assay [3] was 31%. For the same molecule, the inhibition at 30 µM in assay [4] came to 53%.

Turning to `CC(C)CNC(=O)/C=C/CCc1ccc2c(c1)OCO2` [4,5-DIHYDROPIPERLONGUMININE], the inhibition at 1 µM in assay [1] was determined as 34%. In [2], the inhibition at 10 µM was 43%. Besides, the inhibition at 3 µM in assay [3] was 43%. The inhibition at 30 µM in assay [4] is 66%.

In the case of `CC(C)CNC(=O)/C=C/C=C/CCCCCCCC/C=C/c1ccc2c(c1)OCO2` [BRACHYSTAMIDE B], the inhibition at 10 µM in assay [2] was found to be 11%. Further, the inhibition at 3 µM in assay [3] amounted to 22%. In [4], the inhibition at 30 µM is -6%.

Consider `O=C(/C=C/C=C/CCCC/C=C/c1ccc2c(c1)OCO2)N1CCCCC1` [PIPERUNDECALIDIENE], for which the inhibition at 1 µM in [1] is 27%. In [2], the inhibition at 10 µM was 49%. For the same molecule, in assay [3], the inhibition at 3 µM came out at 40%. In addition, the inhibition at 30 µM in assay [4] came to 58%.
